Measured values from PubChem BioAssay AID1259407 (Chemical Carcinogenesis Research Information System (CCRIS), 2018).
Active and inactive are the calls of the source. How the calls were made is not given here.

Tested on: CCRIS mutagenicity, Ames/micronucleus/aberration tests
Assay: CCRIS mutagenicity studies

CCCCNC(=O)n1c(NC(=O)OC)nc2ccccc21
mutagenic call (End Point: IN VIVO CHROMOSOMAL ABERRATIONS, Test System: BONE MARROW CELLS, Species: MOUSE, Strain/Sex: SWISS/MALE, Route: DIET (ORAL)): active; positive at all dose levels (structural and ploidy changes, robertsonian translo
mutagenic call (Test System: AMES SALMONELLA TYPHIMURIUM, Strain/Indicator: TA97, Metabolic Activation: HAMSTER, LIVER, S-9, AROCLOR 1254 (10%), Method: PREINCUBATION): inactive; negative
mutagenic call (Test System: AMES SALMONELLA TYPHIMURIUM, Strain/Indicator: TA97, Metabolic Activation: HAMSTER, LIVER, S-9, AROCLOR 1254 (30%), Method: PREINCUBATION): inactive; negative
mutagenic call (Test System: AMES SALMONELLA TYPHIMURIUM, Strain/Indicator: TA97, Metabolic Activation: NONE, Method: PREINCUBATION): inactive; negative
mutagenic call (Test System: AMES SALMONELLA TYPHIMURIUM, Strain/Indicator: TA97, Metabolic Activation: RAT, LIVER, S-9, AROCLOR 1254 (10%), Method: PREINCUBATION): inactive; negative
mutagenic call (Test System: AMES SALMONELLA TYPHIMURIUM, Strain/Indicator: TA97, Metabolic Activation: RAT, LIVER, S-9, AROCLOR 1254 (30%), Method: PREINCUBATION): inactive; negative
mutagenic call (Test System: AMES SALMONELLA TYPHIMURIUM, Strain/Indicator: TA97A, Metabolic Activation: NONE, Method: STANDARD PLATE): inactive; negative
mutagenic call (Test System: AMES SALMONELLA TYPHIMURIUM, Strain/Indicator: TA97A, Metabolic Activation: PLANT, HOMOGENATE, S-14, Method: STANDARD PLATE): inactive; negative
mutagenic call (Test System: AMES SALMONELLA TYPHIMURIUM, Strain/Indicator: TA97A, Metabolic Activation: S-9, Method: STANDARD PLATE): inactive; negative
mutagenic call (Test System: AMES SALMONELLA TYPHIMURIUM, Strain/Indicator: TA98, Metabolic Activation: HAMSTER, LIVER, S-9, 1254 (10%), Method: PREINCUBATION): inactive; negative
mutagenic call (Test System: AMES SALMONELLA TYPHIMURIUM, Strain/Indicator: TA98, Metabolic Activation: HAMSTER, LIVER, S-9, AROCLOR 1254 (30%), Method: PREINCUBATION): inactive; negative
mutagenic call (Test System: AMES SALMONELLA TYPHIMURIUM, Strain/Indicator: TA98, Metabolic Activation: NONE, Method: PREINCUBATION): inactive; negative
mutagenic call (Test System: AMES SALMONELLA TYPHIMURIUM, Strain/Indicator: TA98, Metabolic Activation: PLANT, HOMOGENATE, S-14, Method: STANDARD PLATE): inactive; negative
mutagenic call (Test System: AMES SALMONELLA TYPHIMURIUM, Strain/Indicator: TA98, Metabolic Activation: RAT, LIVER, S-9, AROCLOR 1254 (10%), Method: PREINCUBATION): inactive; negative
mutagenic call (Test System: AMES SALMONELLA TYPHIMURIUM, Strain/Indicator: TA98, Metabolic Activation: RAT, LIVER, S-9, AROCLOR 1254 (30%), Method: PREINCUBATION): inactive; negative
mutagenic call (Test System: AMES SALMONELLA TYPHIMURIUM, Strain/Indicator: TA98, Metabolic Activation: RAT, LIVER, S-9, AROCLOR 1254, Method: STANDARD PLATE): inactive; negative
mutagenic call (Test System: AMES SALMONELLA TYPHIMURIUM, Strain/Indicator: TA98, Metabolic Activation: RAT, LIVER, S-9, AROCLOR, Method: STANDARD PLATE): inactive; negative
mutagenic call (Test System: AMES SALMONELLA TYPHIMURIUM, Strain/Indicator: TA98, Metabolic Activation: S-9, Method: STANDARD PLATE): inactive; negative
mutagenic call (Test System: AMES SALMONELLA TYPHIMURIUM, Strain/Indicator: TA100, Metabolic Activation: HAMSTER, LIVER, S-9, AROCLOR 1254 (10%), Method: PREINCUBATION): inactive; negative
mutagenic call (Test System: AMES SALMONELLA TYPHIMURIUM, Strain/Indicator: TA100, Metabolic Activation: HAMSTER, LIVER, S-9, AROCLOR 1254 (30%), Method: PREINCUBATION): inactive; negative
mutagenic call (Test System: AMES SALMONELLA TYPHIMURIUM, Strain/Indicator: TA100, Metabolic Activation: NONE, Method: PREINCUBATION): inactive; negative
mutagenic call (Test System: AMES SALMONELLA TYPHIMURIUM, Strain/Indicator: TA100, Metabolic Activation: PLANT, HOMOGENATE, S-14, Method: STANDARD PLATE): inactive; negative
mutagenic call (Test System: AMES SALMONELLA TYPHIMURIUM, Strain/Indicator: TA100, Metabolic Activation: RAT, LIVER, S-9, AROCLOR 1254 (10%), Method: PREINCUBATION): inactive; negative
mutagenic call (Test System: AMES SALMONELLA TYPHIMURIUM, Strain/Indicator: TA100, Metabolic Activation: RAT, LIVER, S-9, AROCLOR 1254 (30%), Method: PREINCUBATION): inactive; negative
mutagenic call (Test System: AMES SALMONELLA TYPHIMURIUM, Strain/Indicator: TA100, Metabolic Activation: RAT, LIVER, S-9, AROCLOR 1254, Method: STANDARD PLATE): inactive; negative
mutagenic call (Test System: AMES SALMONELLA TYPHIMURIUM, Strain/Indicator: TA100, Metabolic Activation: RAT, LIVER, S-9, AROCLOR, Method: STANDARD PLATE): inactive; negative
mutagenic call (Test System: AMES SALMONELLA TYPHIMURIUM, Strain/Indicator: TA100, Metabolic Activation: S-9, Method: STANDARD PLATE): inactive; negative
mutagenic call (Test System: AMES SALMONELLA TYPHIMURIUM, Strain/Indicator: TA1535, Metabolic Activation: HAMSTER, LIVER, S-9, AROCLOR 1254 (10%), Method: PREINCUBATION): inactive; negative
mutagenic call (Test System: AMES SALMONELLA TYPHIMURIUM, Strain/Indicator: TA1535, Metabolic Activation: HAMSTER, LIVER, S-9, AROCLOR 1254 (30%), Method: PREINCUBATION): inactive; negative
mutagenic call (Test System: AMES SALMONELLA TYPHIMURIUM, Strain/Indicator: TA1535, Metabolic Activation: NONE, Method: PREINCUBATION): inactive; negative
mutagenic call (Test System: AMES SALMONELLA TYPHIMURIUM, Strain/Indicator: TA1535, Metabolic Activation: PLANT, HOMOGENATE, S-14, Method: STANDARD PLATE): inactive; negative
mutagenic call (Test System: AMES SALMONELLA TYPHIMURIUM, Strain/Indicator: TA1535, Metabolic Activation: RAT, LIVER, S-9, AROCLOR 1254 (10%), Method: PREINCUBATION): inactive; negative
mutagenic call (Test System: AMES SALMONELLA TYPHIMURIUM, Strain/Indicator: TA1535, Metabolic Activation: RAT, LIVER, S-9, AROCLOR 1254 (30%), Method: PREINCUBATION): inactive; negative
mutagenic call (Test System: AMES SALMONELLA TYPHIMURIUM, Strain/Indicator: TA1535, Metabolic Activation: RAT, LIVER, S-9, AROCLOR 1254, Method: STANDARD PLATE): inactive; negative
mutagenic call (Test System: AMES SALMONELLA TYPHIMURIUM, Strain/Indicator: TA1535, Metabolic Activation: RAT, LIVER, S-9, AROCLOR, Method: STANDARD PLATE): inactive; negative
mutagenic call (Test System: AMES SALMONELLA TYPHIMURIUM, Strain/Indicator: TA1535, Metabolic Activation: S-9, Method: STANDARD PLATE): inactive; negative
mutagenic call (Test System: AMES SALMONELLA TYPHIMURIUM, Strain/Indicator: TA1537, Metabolic Activation: HAMSTER, LIVER, S-9, AROCLOR 1254 (10%), Method: PREINCUBATION): inactive; negative
mutagenic call (Test System: AMES SALMONELLA TYPHIMURIUM, Strain/Indicator: TA1537, Metabolic Activation: HAMSTER, LIVER, S-9, AROCLOR 1254 (30%), Method: PREINCUBATION): inactive; negative
mutagenic call (Test System: AMES SALMONELLA TYPHIMURIUM, Strain/Indicator: TA1537, Metabolic Activation: NONE, Method: PREINCUBATION): inactive; negative
mutagenic call (Test System: AMES SALMONELLA TYPHIMURIUM, Strain/Indicator: TA1537, Metabolic Activation: NONE, Method: STANDARD PLATE): inactive; negative
mutagenic call (Test System: AMES SALMONELLA TYPHIMURIUM, Strain/Indicator: TA1537, Metabolic Activation: RAT, LIVER, S-9, AROCLOR 1254 (10%), Method: PREINCUBATION): inactive; negative
mutagenic call (Test System: AMES SALMONELLA TYPHIMURIUM, Strain/Indicator: TA1537, Metabolic Activation: RAT, LIVER, S-9, AROCLOR 1254 (30%), Method: PREINCUBATION): inactive; negative
mutagenic call (Test System: AMES SALMONELLA TYPHIMURIUM, Strain/Indicator: TA1537, Metabolic Activation: RAT, LIVER, S-9, AROCLOR 1254, Method: STANDARD PLATE): inactive; negative
mutagenic call (Test System: AMES SALMONELLA TYPHIMURIUM, Strain/Indicator: TA1537, Metabolic Activation: RAT, LIVER, S-9, AROCLOR, Method: STANDARD PLATE): inactive; negative
mutagenic call (Test System: E. COLI, Strain/Indicator: WP2 UVRA, Metabolic Activation: NONE, Method: FLUCTUATION): active; positive
